Tests used:
[1] = Post mortem biodistribution of [18F]-YJH08 at 30, 60, 90 min; format: in vivo, mouse; conditions: C57B16/J mice
Description: For a broader survey of radiotracer biodistribution post mortem, mice were euthanized after radiotracer injection with CO2(g) asphyxiation and dissected at dedicated time points post injection. The blood and tissues were removed, washed, dried and weighed. The activity of each tissue was measured with a gamma counter. All data was decay corrected. PRISM software was used to express a percentage (% ID/g) of the injected dose per gram of tissue. […] Table 2 provides a tabular representation of the biodistribution data collected 30, 60, 90 minutes after injection of [18F]-YJH08 in C57B16/J mice. The data are represented as mean standard deviation of the % ID/g.

GR = target: T1, GR (Mus musculus, UniProt P06537); experiment: [18F]-YJH08 biodistribution, dexamethasone treatment study; format: in vivo; conditions: 20 min after injection
T1 construct: from tissue; host or cells: tissues of C57BL6/J mice (intact or adrenalectomized), in vivo
T1 sequence (P06537 1-792): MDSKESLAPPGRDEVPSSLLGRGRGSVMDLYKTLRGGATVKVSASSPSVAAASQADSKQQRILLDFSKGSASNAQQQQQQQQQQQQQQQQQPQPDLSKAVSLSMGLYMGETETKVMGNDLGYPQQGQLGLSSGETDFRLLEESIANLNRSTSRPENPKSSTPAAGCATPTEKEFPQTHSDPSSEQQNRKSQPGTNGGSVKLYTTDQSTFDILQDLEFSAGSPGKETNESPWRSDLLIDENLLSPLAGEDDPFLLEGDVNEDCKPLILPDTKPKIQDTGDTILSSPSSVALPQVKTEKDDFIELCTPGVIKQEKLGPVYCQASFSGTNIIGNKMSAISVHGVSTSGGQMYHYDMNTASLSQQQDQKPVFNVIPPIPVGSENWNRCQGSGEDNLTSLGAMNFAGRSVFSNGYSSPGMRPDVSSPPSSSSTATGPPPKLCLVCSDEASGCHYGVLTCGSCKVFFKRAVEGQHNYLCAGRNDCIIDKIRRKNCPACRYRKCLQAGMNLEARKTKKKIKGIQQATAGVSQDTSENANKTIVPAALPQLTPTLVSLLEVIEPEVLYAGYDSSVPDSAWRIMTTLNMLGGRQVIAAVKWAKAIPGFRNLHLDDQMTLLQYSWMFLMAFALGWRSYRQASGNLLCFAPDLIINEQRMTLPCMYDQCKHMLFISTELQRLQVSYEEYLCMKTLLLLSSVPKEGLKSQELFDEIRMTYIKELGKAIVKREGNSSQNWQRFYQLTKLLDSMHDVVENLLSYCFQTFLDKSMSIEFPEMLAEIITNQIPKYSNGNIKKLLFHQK
Description: All animal experiments were conducted under the approval from Institutional Animal Care and Use Committee (IACUC) at UCSF. Male nu nu or C57BL6/J mice (4-6 weeks) purchased from Charles River. All the mice were well-housed in the USCF with free access to food and water. […] The mice were treated once daily for three days. At day 3, the mice received the radiotracer after the final gavage. Adrenalectomized mice were purchased from Charles River, and provided drinking water supplemented with NaCl (aq) per instructions.
For a broader survey of radiotracer biodistribution post mortem, mice were euthanized after radiotracer injection with CO2(g) asphyxiation and dissected at dedicated time points post injection. The blood and tissues were removed, washed, dried and weighed. The activity of each tissue was measured with a gamma counter. All data was decay corrected. PRISM software was used to express a percentage (% ID/g) of the injected dose per gram of tissue. […] The data are represented as mean standard deviation of the % ID/g. […]
The data are presented as a mean±standard deviation of the % ID/g. […] The P value indicates the result of an unpaired, two-tailed Student's t test.

[2] = mice given dexamethasone 100 mg/kg oral gavage once daily for three days
[3] = mice given vehicle by oral gavage once daily for three days

With `COc1cccc2c1-c1ccc3c(c1C(Cc1ccc([18F])cc1)O2)C(C)=CC(C)(C)N3` (racemic) [[18F]-YJH08, [^18F]-5-(4-fluorobenzyl)-10-methoxy-2,2,4-trimethyl-2,5-dihydro-1H-chromeno[3,4-f]quinoline] the “radiotracer uptake, Adrenal Gland” value ([1]; 30 min after injection) was 20.02 ± 2.21 % ID/g, the “radiotracer uptake, Blood” value ([1]; 30 min after injection) was 0.85 ± 0.1 % ID/g and the “radiotracer uptake, Bone” value ([1]; 30 min after injection) was 1.11 ± 0.15 % ID/g. For the same compound, the “radiotracer uptake, Brain” value ([1]; 30 min after injection) was 1.68 ± 0.14 % ID/g, the “radiotracer uptake, Heart” value ([1]; 30 min after injection) was 3.04 ± 0.75 % ID/g and the “radiotracer uptake, Kidney” value ([1]; 30 min after injection) was 4.5 ± 0.5 % ID/g. For the same compound, the “radiotracer uptake, Large intestine” value ([1]; 30 min after injection) was 1.33 ± 0.35 % ID/g, the “radiotracer uptake, Liver” value ([1]; 30 min after injection) was 11.03 ± 0.89 % ID/g and the “radiotracer uptake, Lung” value ([1]; 30 min after injection) was 2.65 ± 0.19 % ID/g. The “radiotracer uptake, Muscle” value ([1]; 30 min after injection) was 1.49 ± 0.2 % ID/g, the “radiotracer uptake, Pancreas” value ([1]; 30 min after injection) was 4.5 ± 0.15 % ID/g and the “radiotracer uptake, Small intestine” value ([1]; 30 min after injection) was 19.05 ± 3.27 % ID/g. For the same compound, the “radiotracer uptake, Spleen” value ([1]; 30 min after injection) was 1.59 ± 0.13 % ID/g, the “radiotracer uptake, Stomach” value ([1]; 30 min after injection) was 1.88 ± 0.96 % ID/g and the “radiotracer uptake, Supraspinal BAT” value ([1]; 30 min after injection) was 14.41 ± 3.42 % ID/g. The “radiotracer uptake, Adrenal Gland” value ([1]; 60 min after injection) was 9.43 ± 0.08 % ID/g, the “radiotracer uptake, Blood” value ([1]; 60 min after injection) was 0.57 ± 0.02 % ID/g and the “radiotracer uptake, Bone” value ([1]; 60 min after injection) was 0.61 ± 0.15 % ID/g. The “radiotracer uptake, Brain” value ([1]; 60 min after injection) was 1.33 ± 0.06 % ID/g, the “radiotracer uptake, Heart” value ([1]; 60 min after injection) was 1.33 ± 0.21 % ID/g and the “radiotracer uptake, Kidney” value ([1]; 60 min after injection) was 2.35 ± 0.34 % ID/g. The “radiotracer uptake, Large intestine” value ([1]; 60 min after injection) was 1.23 ± 0.43 % ID/g, the “radiotracer uptake, Liver” value ([1]; 60 min after injection) was 7.7 ± 0.69 % ID/g and the “radiotracer uptake, Lung” value ([1]; 60 min after injection) was 2.02 ± 0.29 % ID/g. The “radiotracer uptake, Muscle” value ([1]; 60 min after injection) was 1.15 ± 0.03 % ID/g, the “radiotracer uptake, Pancreas” value ([1]; 60 min after injection) was 2.63 ± 0.05 % ID/g and the “radiotracer uptake, Small intestine” value ([1]; 60 min after injection) was 8.61 ± 2.68 % ID/g. The “radiotracer uptake, Spleen” value ([1]; 60 min after injection) was 0.83 ± 0.02 % ID/g, the “radiotracer uptake, Stomach” value ([1]; 60 min after injection) was 1.63 ± 0.92 % ID/g and the “radiotracer uptake, Supraspinal BAT” value ([1]; 60 min after injection) was 16.4 ± 4.93 % ID/g. For the same compound, the “radiotracer uptake, Adrenal Gland” value ([1]; 90 min after injection) was 5.72 ± 2.32 % ID/g, the “radiotracer uptake, Blood” value ([1]; 90 min after injection) was 0.49 ± 0.06 % ID/g and the “radiotracer uptake, Bone” value ([1]; 90 min after injection) was 0.58 ± 0.16 % ID/g. The “radiotracer uptake, Brain” value ([1]; 90 min after injection) was 0.97 ± 0.03 % ID/g, the “radiotracer uptake, Heart” value ([1]; 90 min after injection) was 0.92 ± 0.14 % ID/g and the “radiotracer uptake, Kidney” value ([1]; 90 min after injection) was 1.86 ± 0.26 % ID/g. For the same compound, the “radiotracer uptake, Large intestine” value ([1]; 90 min after injection) was 6.67 ± 4.73 % ID/g, the “radiotracer uptake, Liver” value ([1]; 90 min after injection) was 8.43 ± 1.38 % ID/g and the “radiotracer uptake, Lung” value ([1]; 90 min after injection) was 1.39 ± 0.1 % ID/g. For the same compound, the “radiotracer uptake, Muscle” value ([1]; 90 min after injection) was 0.85 ± 0.18 % ID/g, the “radiotracer uptake, Pancreas” value ([1]; 90 min after injection) was 1.9 ± 0.41 % ID/g and the “radiotracer uptake, Small intestine” value ([1]; 90 min after injection) was 7.67 ± 2.34 % ID/g. For the same compound, the “radiotracer uptake, Spleen” value ([1]; 90 min after injection) was 0.74 ± 0.15 % ID/g, the “radiotracer uptake, Stomach” value ([1]; 90 min after injection) was 2.61 ± 1.54 % ID/g and the “radiotracer uptake, Supraspinal BAT” value ([1]; 90 min after injection) was 14.58 ± 1.91 % ID/g. For the same compound, the “radiotracer uptake, Adrenal Gland” value (GR; [2]) was 10.40 ± 0.7 % ID/g, the “radiotracer uptake, Blood” value (GR; [2]) was 2.95 ± 0.2 % ID/g and the “radiotracer uptake, Bone” value (GR; [2]) was 1.25 ± 0.2 % ID/g. For the same compound, the “radiotracer uptake, Brain” value (GR; [2]) was 1.31 ± 0.07 % ID/g, the “radiotracer uptake, Heart” value (GR; [2]) was 7.57 ± 0.9 % ID/g and the “radiotracer uptake, Kidney” value (GR; [2]) was 3.75 ± 0.5 % ID/g. For the same compound, the “radiotracer uptake, Large intestine” value (GR; [2]) was 1.77 ± 0.5 % ID/g, the “radiotracer uptake, Liver” value (GR; [2]) was 11.43 ± 2.1 % ID/g and the “radiotracer uptake, Lung” value (GR; [2]) was 3.92 ± 0.3 % ID/g. The “radiotracer uptake, Muscle” value (GR; [2]) was 1.71 ± 0.1 % ID/g, the “radiotracer uptake, Pancreas” value (GR; [2]) was 3.33 ± 0.1 % ID/g and the “radiotracer uptake, Small intestine” value (GR; [2]) was 34.43 ± 7.2 % ID/g. The “radiotracer uptake, Spleen” value (GR; [2]) was 4.23 ± 0.3 % ID/g, the “radiotracer uptake, Stomach” value (GR; [2]) was 0.48 ± 0.4 % ID/g and the “radiotracer uptake, Supraspinal BAT” value (GR; [2]) was 4.69 ± 0.7 % ID/g. For the same compound, the “radiotracer uptake, Adrenal Gland” value (GR; [3]) was 17.29 ± 6.7 % ID/g, the “radiotracer uptake, Blood” value (GR; [3]) was 3.98 ± 0.08 % ID/g and the “radiotracer uptake, Bone” value (GR; [3]) was 2.17 ± 0.2 % ID/g. For the same compound, the “radiotracer uptake, Brain” value (GR; [3]) was 2.05 ± 0.03 % ID/g, the “radiotracer uptake, Heart” value (GR; [3]) was 10.66 ± 0.4 % ID/g and the “radiotracer uptake, Kidney” value (GR; [3]) was 8.49 ± 1.3 % ID/g. For the same compound, the “radiotracer uptake, Large intestine” value (GR; [3]) was 1.57 ± 0.4 % ID/g, the “radiotracer uptake, Liver” value (GR; [3]) was 18.46 ± 2.9 % ID/g and the “radiotracer uptake, Lung” value (GR; [3]) was 6.26 ± 0.4 % ID/g. For the same compound, the “radiotracer uptake, Muscle” value (GR; [3]) was 2.46 ± 0.2 % ID/g, the “radiotracer uptake, Pancreas” value (GR; [3]) was 6.22 ± 1.6 % ID/g and the “radiotracer uptake, Small intestine” value (GR; [3]) was 19.12 ± 5.7 % ID/g. For the same compound, the “radiotracer uptake, Spleen” value (GR; [3]) was 3.79 ± 0.4 % ID/g, the “radiotracer uptake, Stomach” value (GR; [3]) was 1.74 ± 0.8 % ID/g and the “radiotracer uptake, Supraspinal BAT” value (GR; [3]) was 10.52 ± 2.9 % ID/g.

— patent US20220280661A1, “GLUCOCORTICOID RECEPTOR RADIOLIGANDS AND METHODS FOR THEIR PREPARATION AND USE” (The Regents of the University of California, priority 2019, published 2022)
